Experiments:
B16F10 melanoma cells = experiment: B16F10 melanoma cell viability after irradiation in vitro; format: cell-based, mouse; conditions: 7N3 1 hour or morpholino 48 hours before 10 Gy, versus untreated cells
Method: FIG. 19. CD47 suppression enhances re-growth delay in irradiated syngeneic B16 melanoma and squamous cell carcinoma tumors but increases radioresistance of B16 cells in vitro. C57BL/6 mice were injected with 1×10^6 B16 mouse melanoma cells into their right hindlimbs. Five days later, the mice were randomized into 4 groups (12 mice in each group) where they either received injections of CD47 morpholino (10 μM) in sterile PBS, PBS, or no injection. The two groups receiving injections were then subjected to radiation (10 Gy) to the effected hindlimb 48 hours later. The other two groups served as controls and consisted of tumor alone or tumor subjected to only the morpholino. Tumors were followed post-radiation for 30 days, measuring their volume every 6 days (FIG. 19A). […] Cell (mitochondrial) viability was measured 48 hours post radiation using the MTT assay.
Cell Viability Assay. […] Cell viability was determined using the CellTiter 96 Aqueous One Solution cell proliferation assay (Promega, Madison, Wis.) as per the manufacturer's instructions and absorbance at 490 nm was determined using an MR580 Microelisa AutoReader (Dynatech, Alexandria, Va.). […]
Irradiation of cells. […] The dose rate at 50 cm from the x-ray source was 242 cGy/minute, as determined by multiple thermo luminescent dosimeter readings.

C57BL/6 wild type mice = experiment: Hindlimb irradiation (25 Gy), skin reaction / tissue necrosis grading and histology; format: in vivo, mouse; conditions: for skin reaction / tissue damage of irradiated hindlimb: 10 μM in 750 μl PBS local-regional
Method: FIG. 16. CD47 suppression using an antisense morpholino minimizes tissue damage from radiation injury. Age and sex matched C57BL16 wild type mice underwent a one-time treatment of the right hindlimb with either a murine specific CD47 morpholino oligonucleotide (10 μM in 750 μl PBS) or 750 μl of PBS injected local-regionally to the muscle and soft tissues. […] At the end of 8 weeks, there was a considerable amount of alopecia, dry desquamation and early signs of fibrotic contractures within the irradiated hind limbs of mice receiving only PBS. […] The tissue necrosis grading scores for 8 animals are presented as mean±SD (FIG. 16B) and show a similar trend throughout the 8-week observation period.
Skin reaction: Skin reaction following hind limb irradiation was quantified every week following treatment for 8 weeks using a previously described grading system (Flanders et al., Am J Pathol 163:2247-2257, 2003). The grading system consisted of 5 categories: normal, hair loss, erythema, dry desquamation and moist desquamation/ulceration.
Irradiation of mice: Age and sex matched wild type mice underwent local irradiation to the right hindlimb as described in Example 1. Forty-eight hours prior to irradiation, animals received the CD47 morpholino (SEQ ID NO: 4), a control morpholino (SEQ ID NO: 5) (both at 10 μM in […] PBS via intramuscular injection), vehicle, or no treatment to the hind limb. Under 1% isoflurane inhalation anesthesia, the animals were placed in customized Lucite jigs that allow for immobilization and selective irradiation of the right hindlimb. A single radiation dose of 25 Gy was delivered by a Therapax® DXT300 X-ray irradiator (Pantak, Inc., East Haven, Conn.) using 2.0-mm A1 filtration (300 kVp) at a dose rate of 2.53 Gy/min. Care was taken to avoid irradiation of other body parts by using lead shields specifically designed as a part of the jigs. After irradiation, the animals were placed in cages as indicated above and observed weekly. Skin reaction after hind limb irradiation was quantified every week after treatment for 8 weeks using a previously described grading system (Flanders et al., Am J. Pathol 163:2247-2257, 2003). Briefly, tissue necrosis grading system consists of 5 categories: normal, hair loss, erythema, dry desquamation, and moist desquamation/ulceration.
Age and sex matched C57BL16 wild type mice underwent a one-time treatment of the right hindlimb with the CD47 antisense morpholino oligonucleotide (10 μM in 750 μl PBS), a mismatched control morpholino, or vehicle (PBS) injected local-regionally to the muscle and soft tissues.

Sequence: CGTCACAGGCAGGACCCACTGCCCA (all phosphorodiamidate morpholino (PMO)) [CD47 morpholino, CD47 targeting morpholino oligonucleotide]
- cell viability after 10 Gy (B16F10 melanoma cells): mild radioprotective effect
- skin reaction / tissue damage of irradiated hindlimb (C57BL/6 wild type mice; 48 hours before 25 Gy, 8 weeks): little to no alopecia, ulceration, or desquamation
- skin reaction / tissue damage of irradiated hindlimb (C57BL/6 wild type mice; 48 hours before 25 Gy, 8 weeks, listed as CD47 targeting morpholino): minimal to no alopecia, ulceration, and desquamation
- H&E of treated hindlimb skeletal muscle (C57BL/6 wild type mice; 25 Gy, results not shown): muscle cell survival and hypertrophy
- hindlimb contracture due to fibrosis (C57BL/6 wild type mice; 48 hours before 25 Gy, 8 weeks): minimal contracture due to fibrosis

From patent publication US8951527B2, “Radioprotectants targeting thrombospondin-1 and CD47” (The United States of America, as represented by the …, priority 2008, dated 2015)
